Common to all, as to assay type: in vivo, mice
Assay [1] deals with vasculature within the murine chronic granulomatous air pouch. As to the kind of experiment: murine chronic granulomatous air pouch, carmine vascular cast; dosing daily from induction for 6 days. The settings on record: for effect on the tissue vascularity: daily. The protocol:
The Applicants chose a simple model of murine angiogenesis induced with a chronic granulomatous reaction to Freund's complete adjuvant in croton oil. The Applicants assessed this process using a modification of this method by the formation of an intravascular cast incorporating carmine red. Chronic granulomatous air pouches were induced by the sc injection of 3 ml air into anaesthetized mice (25-30 g, Tuck Original) and 0.5 ml Freund's complete adjuvant with 0.1% croton oil 24 hours later. The mice were dosed for 6 days and the vascular content assessed by the formation of a vascular cast. This was formed by the intravenous injection of 1 ml 25% carmine red in 10% gelatin at 40°C into warmed mice. This overcame any pharmacological or temperature-related alterations in peripheral vasomotor tone which may have invalidated the results. The carcasses were chilled and the granulomatous air pouch linings dissected. These were dried at 56°C, weighed, and papain digested. The dye was then be dissolved by the addition of 1 ml 0.05 M NaOH, and the samples were then centrifuged at 2500 g for 20 minutes. After these were filtered, the absorbances were read at 490 nm using a multiwell plate reader (Biotek). The results were then expressed as either µg dye/mg dry weight of tissue. […] On the seventh day after induction the vascularity of the tissue was assessed. […] The formation of a subcutaneous air pouch in the dorsum of mice allows the formation of a lining which responds to produce a chronic inflammatory lesion in response to various antigens, irritants and foreign bodies. It can also be used for the introduction of drugs and various other treatments into the site of inflammation and the collection of inflammatory exudate. […] For this experiment female mice (TO. 25-30g, 10 per group) were lightly anesthetized with hypnorm/hypnoval. Air pouches were formed by the subcutaneous injection of 3 ml of filter-sterilized air, into the dorsum of each mouse. After 24 hours, chronic inflammation was induced in the air pouch lining by the injection of 0.5 ml Freund's complete adjuvant (FCA) supplemented with 0.1% croton oil. Animals were dosed daily from the time o: injection of FCA/croton oil, for 6 Days. At which point the analysis was performed. […] Each mouse was then placed into a water jacketed incubation chamber at 37°C and injected i.v. with 1 ml of 15% carmine dye in 10% gelatin (in Hanks balanced salt solution) with syringe and solution prewarmed to 40°C. Cadavers were then chilled at 4°C for 4 hours. The granulomatous tissue was dissected free and dried in an oven at 56°C for 48 hours. The dried granuloma was weighed and then digested in 9 ml of papain solution (12-Units/ml in 0.05 M phosphate buffer, pH 7.0, supplemented with 0.33g/l N-acetyl cysteine), at 56°C for 48 hours. The digests were then made up to 10 ml with 5.0M NaOH and vortexed, to solubilise the dye and centrifuged. The digests were filtered through 0.2µm cellulose nitrate membranes and […] samples aliquoted into 96 well plates and analyzed for dye content by spectrophotometric analysis at […] using a microplate reader. Vascular volume was calculated as carmine content per mg dry mass of tissue.

Assay [2] shares this test system. Nature of the assay: further protocol: air pouch granuloma grown 7 days untreated, then topical daily treatment (regression). The settings on record: for VI: mean vascularity index; for Carmine / Dry wt. gran.: mean. The procedure:
In another protocol, the use of the air pouch on the mice was once again employed. Only this time, after formation of the pouches and injection of .5 ml Freund's complete adjuvant (FCA) supplemented with 0.1% croton oil, the granuloma in the mice were permitted to grow for 7 days (they were left unhealed for 1 week). […] The granulomatous tissue was dissected and treated as previously described. The weight of the granuloma (including the carmine red dye) and weight of the carmine red dye (which displaced the blood) were determined for each mouse sacrificed at each stage (after 7, 14 and 21 days). The vascularity index (VI) was calculated and the mean vascularity index was calculated for each group as follows: Vascularity Index (VI) =(weight of carmine red dye in GRANULOMA)/(Weight of GRANULOMA (including carmine red dye)) [formula]

For assay [3] the test system is unchanged. As to the kind of experiment: murine chronic granulomatous air pouch, carmine vascular cast; dosing daily from induction for 6 days. The settings on record: Topical, n = 8 (Table Three summary).
Where [4] appears, read: i-pouch, n = 10 (Table Three summary).
Where [5] appears, read: intra-pouch injection, daily 6 days, group mean, N = 10.
Where [6] appears, read: 2 week (one week of topical application).
Where [7] appears, read: 3 week (two weeks of topical application).

Several values for one entry are separate records, joined by “and”; a condition that tells them apart may be missing. Identical values can stand only once.

Consider `O=C(O)Cc1ccccc1Nc1c(Cl)cccc1Cl` [diclofenac (diclo), Diclofenac], for which the entries for the “Carmine dye (ug) Mean” value in assay [1] (setting [4]) and in assay [3] were 92.6 µg and 187.3 µg, respectively. Further, the “ug.dye/mg.gramuloma Mean” value in assay [1] (setting [4]) is 0.7363 ug.dye/mg.gramuloma; in assay [3] it was 1.216 ug.dye/mg.gramuloma. Besides, the “effect on the tissue vascularity” value in assay [1] (intra-lesional injection, assessed on seventh day (Figure 1(b))) is given as “no significant effect”; in assay [1] (topical, assessed on seventh day (Figure 1(a))), “no significant effect”. Besides, the “Absorbness / Absorbous” value in assay [1] (intra-pouch injection, daily 6 days, absorbance at 490 nm of digest, individual animals, listed as Saline + diclo) is 0.773 and 0.242 and 0.730 and 0.400 and 0.409 and 0.262 and 0.402 and 0.468. For the same compound, the ug dye mg in assay [1] (intra-pouch injection, daily 6 days, carmine per mg dry tissue, individual animals, listed as Saline + diclo) is 1.194 ug dye mg and 0.320 ug dye mg and 1.577 ug dye mg and 1.050 ug dye mg and 0.674 ug dye mg and 0.442 ug dye mg and 0.526 ug dye mg and 0.471 ug dye mg and 0.586 ug dye mg and 0.520 ug dye mg; in assay [1] (setting [5]) it was 0.7363 ug dye mg. Further, the “Dry wt” value in assay [1] (intra-pouch injection, daily 6 days, dried granuloma, individual animals, listed as Saline + diclo) was 158 mg and 99 mg (2×) and 124 mg and 162 mg and 170 mg and 122 mg. The ug carmine in assay [1] (setting [5]) was 92.75 µg; in assay [1] (intra-pouch injection, daily 6 days, individual animals, listed as Saline + diclo), 166 µg and 50.5 µg and 156 µg and 104 µg and 86.7 µg and 54.8 µg and 85.2 µg and 63.7 µg and 99.5 µg and 61.3 µg. In addition, the “VI” value is 1.3 µg/mg in assay [2] (2 week (one week of topical application), listed as Diclo Alone) and 1.300 µg/mg in assay [2] (2 week (one week of topical application), listed as aq. cream/Diclo). Further, the “Carmine” value in assay [2] (setting [6]) stood at 108.63 µg; in assay [2] (setting [7]) it was 150.07 µg. Moreover, the figures for the “Dry wt. gran.” value in assay [2] (setting [6]) and in assay [2] (setting [7]) were 84.41 mg and 112.19 mg, respectively. In assay [3], the “Granuloma dry wt.(mg) Mean” value was determined as 166.3 mg.

For the origin of these results see patent EP0695187B1, “INHIBITION, CONTROL AND REGRESSION OF ANGIOGENESIS WITH HYALURONIC ACID OR HYALURONIC ACID AND NSAID” (JAGOTEC AG, priority 1993, dated 1994).
